# According to US20050282755A1, “Compositions having antimicrobial activity and uses thereof” (priority 2004, published 2005):
# Starred links: 1 amine or outer side, 2 acyl side, 3 side chain; linkers in the order of their positions; H or OH if unused. Non-standard residues stand in square brackets, D forms with d. Residues, ends and D or L forms follow the SMILES beside them. *: point of attachment. Ethylenediamine = C(CN[*:2])N[*:1]; Palmitoyl = CCCCCCCCCCCCCCCC(=O)*; Lauroyl = CCCCCCCCCCCC(=O)*; Decanoyl = CCCCCCCCCC(=O)*; Octanoyl = CCCCCCCC(=O)*; Hexanoyl = CCCCCC(=O)*
# What was measured:
# Type in all cases: cell-based
# [1] = system: Staphylococcus aureus ATCC 29213; experiment: MIC, NCCLS M7-A6 broth microdilution, cation-adjusted Mueller Hinton broth (Table 9, no superscript); conditions: ATCC 29213
# In short: (§1)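 Broth microdilution in cation-adjusted Mueller Hinton broth with log-phase inoculum at 5×10^5 to 1×10^6 CFU/mL, incubated overnight at 37° C. MIC was the lowest peptide concentration showing no visible turbidity versus the no-peptide control.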
# [2] = system: Escherichia coli ATCC 25922; experiment: MIC, NCCLS M7-A6 broth microdilution (Table 9, no superscript); conditions: ATCC 25922
# In short: as §1
# [3] = system: Pseudomonas aeruginosa ATCC 27853; experiment: as above; conditions: ATCC 27853
# In short: as §1
# [4] = system: Salmonella dublin (Lane); experiment: as above
# In short: as §1
# [5] = system: Staphylococcus epidermidis ATCC 12228; experiment: as above; conditions: ATCC 12228
# In short: as §1
# [6] = system: Propionibacterium acnes ATCC 6919; experiment: MIC, agar dilution method NCCLS M11-A6, Brucella agar, anaerobic (Table 9, superscript c); conditions: ATCC 6919
# In short: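 MIC taken as the lowest peptide level giving no colonies on the plate. Plates were inoculated to 1.5×10^8 CFU/milliliter, then kept anaerobically at 37° C. for 48-96 hours; method follows NCCLS M11-A6.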
# [7] = system: Candida albicans ATCC 18804; experiment: MIC in yeasts, NCCLS M27-A2 broth microdilution, RPMI 1640 (Table 9, letter e); conditions: ATCC 18804
# In short: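 Plates incubated 24 to 48 hours at 37° C, with yeast seeded at 0.5×10^3–2.5×10^3 CFU/milliliter final in RPMI 1640 (glutamine, phenol red indicator). MIC was read as the lowest peptide concentration showing no visible growth.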
SMILES,MIC S. aureus [1] [µg/mL],MIC E. coli [2] [µg/mL],MIC P. aeruginosa [3] [µg/mL],MIC S. dublin [4] [µg/mL],MIC S. epidermidis [5] [µg/mL],MIC P. acnes [6] [c ug/mL],MIC C. albicans [7] [e ug/mL]
"CCCCCCCCCCCC(=O)N[C@H](CCCNC(=N)N)C(=O)N[C@H](CCCCN)C(=O)N[C@H](CCCNC(=N)N)C(=O)N[C@H](Cc1c[nH]c2ccccc12)C(=O)N[C@H](CCCNC(=N)N)C(=O)N[C@H](CCCCN)C(=O)N[C@@H](C(=O)N[C@H](C)C(=O)N[C@H](CCCNC(=N)N)C(=O)N[C@H](CCCCN)C(=O)N[C@H](Cc1ccccc1)C(=O)N[C@H](CC(C)C)C(=O)N[C@H](CCCNC(=N)N)C(N)=O)C(C)C [Peptide 223, Lauryl-rkrwrkvarkflr-NH2] (Lauroyl-[dR][dK][dR][dW][dR][dK][dV][dA][dR][dK][dF][dL][dR]-NH2)",4,16,8,32,2,>64,4
"CCCCCCCCCCCC(=O)N[C@@H](CCCNC(=N)N)C(=O)N[C@@H](CO)C(=O)N[C@@H](CCCNC(=N)N)C(=O)N[C@@H](Cc1c[nH]c2ccccc12)C(=O)N[C@@H](CCCNC(=N)N)C(=O)N[C@@H](CC(=O)O)C(=O)N[C@@H](Cc1c[nH]c2ccccc12)C(=O)N[C@@H](C)C(=O)N[C@@H](CCCNC(=N)N)C(=O)N[C@@H](CC(N)=O)C(=O)N[C@@H](Cc1c[nH]c2ccccc12)C(=O)N[C@@H](CCSC)C(=O)N[C@@H](CCCNC(=N)N)C(N)=O [Peptide 143, Lauryl-RSRWRDWARNWMR-NH2] (Lauroyl-RSRWRDWARNWMR-NH2)",4,4,16,4,2,2,4
"CCCCCCCCCCCC(=O)N[C@H](CCCNC(=N)N)C(=O)N[C@H](Cc1c[nH]c2ccccc12)C(=O)N[C@H](CCCNC(=N)N)C(=O)N[C@H](CC(=O)O)C(=O)N[C@@H](C(=O)N[C@H](C)C(=O)N[C@H](CCCNC(=N)N)C(N)=O)C(C)C [Peptide 122, Lauryl-rwrdvar-NH2] (Lauroyl-[dR][dW][dR][dD][dV][dA][dR]-NH2)",8,64,16,32,8,32,32
"CCCCCCCCCCCC(=O)N[C@H](CCCNC(=N)N)C(=O)N[C@H](C)C(=O)N[C@H](CCCNC(=N)N)C(=O)N[C@H](Cc1c[nH]c2ccccc12)C(=O)N[C@H](CCCNC(=N)N)C(=O)N[C@H](CC(=O)O)C(=O)N[C@@H](C(=O)N[C@H](C)C(=O)N[C@H](CCCNC(=N)N)C(=O)N[C@H](CC(N)=O)C(=O)N[C@H](Cc1ccccc1)C(=O)N[C@H](CCSC)C(=O)N[C@H](CCCNC(=N)N)C(N)=O)C(C)C [Peptide 237, Lauryl-rarwrdvarnfmr-NH2] (Lauroyl-[dR][dA][dR][dW][dR][dD][dV][dA][dR][dN][dF][dM][dR]-NH2)",4,4,8,4,1,16,16
"CCCCCCCCCCCCCCCC(=O)N[C@H](CCCNC(=N)N)C(=O)N[C@H](CO)C(=O)N[C@H](CCCNC(=N)N)C(=O)N[C@H](Cc1c[nH]c2ccccc12)C(=O)N[C@H](CCCNC(=N)N)C(=O)N[C@H](CC(=O)O)C(=O)N[C@@H](C(=O)N[C@H](C)C(=O)N[C@H](CCCNC(=N)N)C(=O)N[C@H](CC(N)=O)C(=O)N[C@H](Cc1ccccc1)C(=O)N[C@H](CCSC)C(=O)N[C@H](CCCNC(=N)N)C(N)=O)C(C)C [Peptide 209, Palmitoyl-rsrwrdvarnfmr-NH2] (Palmitoyl-[dR][dS][dR][dW][dR][dD][dV][dA][dR][dN][dF][dM][dR]-NH2)",16,>64,>64,32,8,32,8
"CCCCCCCCCCCC(=O)N[C@H](CCCNC(=N)N)C(=O)N[C@H](CC(=O)O)C(=O)N[C@@H](C(=O)N[C@H](C)C(=O)N[C@H](CCCNC(=N)N)C(=O)N[C@H](CC(N)=O)C(=O)N[C@H](Cc1ccccc1)C(=O)N[C@H](CCSC)C(=O)N[C@H](CCCNC(=N)N)C(N)=O)C(C)C [Peptide 128, Lauryl-rdvarnfmr-NH2] (Lauroyl-[dR][dD][dV][dA][dR][dN][dF][dM][dR]-NH2)",16,32,32,32,8,16,32
"CCCCCCCCCC(=O)NCCCC[C@@H](NC(=O)[C@@H](CCCNC(=N)N)NC(=O)[C@@H](CCSC)NC(=O)[C@@H](Cc1ccccc1)NC(=O)[C@@H](CC(N)=O)NC(=O)[C@@H](CCCNC(=N)N)NC(=O)[C@@H](C)NC(=O)[C@H](NC(=O)[C@@H](CC(=O)O)NC(=O)[C@@H](CCCNC(=N)N)NC(=O)[C@@H](Cc1c[nH]c2ccccc12)NC(=O)[C@@H](CCCNC(=N)N)NC(=O)[C@@H](CO)NC(=O)[C@H](N)CCCNC(=N)N)C(C)C)C(N)=O [Peptide 199, H2N-rsrwrdvarnfmrk(Decanyl)-NH2] (H-[dR][dS][dR][dW][dR][dD][dV][dA][dR][dN][dF][dM][dR][dK](Decanoyl)-NH2)",2,4,4,8,1,8,32
"CCCCCC(=O)NCCNC(=O)[C@H](CCCNC(=N)N)NC(=O)[C@H](CC(C)C)NC(=O)[C@H](Cc1ccccc1)NC(=O)[C@H](CC(N)=O)NC(=O)[C@H](CCCNC(=N)N)NC(=O)[C@H](C)NC(=O)[C@@H](NC(=O)[C@H](CC(=O)O)NC(=O)[C@H](CCCNC(=N)N)NC(=O)[C@H](Cc1c[nH]c2ccccc12)NC(=O)[C@H](CCCNC(=N)N)NC(=O)[C@H](CO)NC(=O)[C@@H](N)CCCNC(=N)N)C(C)C [Peptide 168, H2N-RSRWRDVARNFLR-Ethylamidohexanyl] (H-RSRWRDVARNFLR-{Ethylenediamine-Hexanoyl}; C-terminus assumed)",16,2,32,16,1,64,32
"CCCCCCCCCCCC(=O)N[C@@H](CCCNC(=N)N)C(=O)N[C@@H](CO)C(=O)N[C@@H](CCCNC(=N)N)C(=O)N[C@@H](Cc1c[nH]c2ccccc12)C(=O)N[C@@H](CCCNC(=N)N)C(=O)N[C@@H](CC(=O)O)C(=O)N[C@H](C(=O)N[C@@H](CC(C)C)C(=O)N[C@@H](CCCNC(=N)N)C(=O)N[C@@H](CC(N)=O)C(=O)N[C@@H](Cc1ccccc1)C(=O)N[C@@H](CC(C)C)C(=O)N[C@@H](CCCNC(=N)N)C(N)=O)C(C)C [Peptide 136, Lauryl-RSRWRDVLRNFLR-NH2] (Lauroyl-RSRWRDVLRNFLR-NH2)",4,8,32,8,1,8,1
"CCCCCCCC(=O)NCCCC[C@@H](NC(=O)[C@@H](CCCNC(=N)N)NC(=O)[C@@H](CCSC)NC(=O)[C@@H](Cc1ccccc1)NC(=O)[C@@H](CC(N)=O)NC(=O)[C@@H](CCCNC(=N)N)NC(=O)[C@@H](C)NC(=O)[C@H](NC(=O)[C@@H](CC(=O)O)NC(=O)[C@@H](CCCNC(=N)N)NC(=O)[C@@H](Cc1c[nH]c2ccccc12)NC(=O)[C@@H](CCCNC(=N)N)NC(=O)[C@@H](CO)NC(=O)[C@H](N)CCCNC(=N)N)C(C)C)C(N)=O [Peptide 198, H2N-rsrwrdvarnfmrk(Octanyl)-NH2] (H-[dR][dS][dR][dW][dR][dD][dV][dA][dR][dN][dF][dM][dR][dK](Octanoyl)-NH2)",16,16,64,32,4,16,64
